Test results taken from the supplement of paper PMC9663587.

What was measured:
[1] = compound: T1, CN1CC[C@H](c2c(O)cc(O)c3c(=O)cc(-c4ccccc4Cl)oc23)[C@H](O)C1 [Flavopiridol]
[2] = compound: NC1(C(=O)N[C@@H](CCO)c2ccc(Cl)cc2)CCN(c2nc[nH]c3nccc2-3)CC1 [AZD5363]
[3] = compound: CC(=O)O[C@H]1C(=O)[C@@]2(C)[C@H]([C@H](OC(=O)c3ccccc3)[C@]3(O)C[C@H](OC(=O)[C@H](O)[C@@H](NC(=O)c4ccccc4)c4ccccc4)C(C)=C1C3(C)C)[C@]1(OC(C)=O)CO[C@@H]1C[C@@H]2O [Paclitaxel]
[4] = compound: CO[C@@H](C)Cn1c(=O)n(C)c2cnc3ccc(-c4cncc(C(C)(C)O)c4)cc3c21
[5] = compound: CC(C)Nc1cc(-c2c[nH]c(C(=O)N[C@H](CO)c3cccc(Cl)c3)c2)c(Cl)cn1 [BVD523]
[6] = compound: C1=CC2=C(C=CC(=C2)C=C3C(=O)NC(=NCC4=CC=CS4)S3)N=C1 [R0-3306]
[7] = compound: CCC1=CN=CN=C1N2CCN(CC2)CC3=NC4=C(N3)C=C(C=C4)C(F)(F)F
[8] = compound: CCOc1cc2ncc(C#N)c(Nc3ccc(OCc4ccccn4)c(Cl)c3)c2cc1NC(=O)/C=C/CN(C)C [Neratinib/HKI272]
[9] = compound: T2, CC(=O)c1c(C)c2cnc(Nc3ccc(N4CCN(CCOCCOCCOCCNC(=O)COc5cccc6c5C(=O)N(C5CCC(=O)NC5=O)C6=O)CC4)cn3)nc2n(C2CCCC2)c1=O [BSJ-03-123]
[10] = compound: T1, Flavopiridol; test: GR value, 72 h; higher = faster growth (1 = untreated, <0 = killing);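 note: breast cancer and non-malignant breast epithelial lines, nine half-log doses, viable cells counted by Hoechst and LIVE/DEAD dye imaging versus time-zero plates and DMSO controls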
[11] = compound: CCN1CCN(Cc2ccc(Nc3ncc(F)c(-c4cc(F)c5nc(C)n(C(C)C)c5c4)n3)nc2)CC1; test: as above
[12] = compound: C=CC(=O)Nc1ccc(C(=O)Nc2[nH]nc3c2CN(C(=O)N[C@H](CN(C)C)c2ccccc2)C3(C)C)cc1 [YKL-5-124]; test: as above
[13] = compound: CN(C)C/C=C/C(=O)Nc1ccc(C(=O)N2CCC[C@@H](Nc3ncc(Cl)c(-c4c[nH]c5ccccc45)n3)C2)cc1 [THZ531]; test: as above
[14] = compound: CCc1cnn2c(NCc3ccc[n+]([O-])c3)cc(N3CCCC[C@H]3CCO)nc12; test: as above
[15] = compound: CN(C)C(=O)c1cc2cnc(Nc3ccc(N4CCNCC4)cn3)nc2n1C1CCCC1 [LEE011/Ribociclib]; test: as above
[16] = compound: T2, BSJ-03-123; test: as above
[17] = compound: CN(C)C/C=C/C(=O)Nc1ccc(C(=O)Nc2cccc(Nc3ncc(Cl)c(-c4c[nH]c5ccccc45)n3)c2)cc1 [THZ1]; test: as above
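Throughout, for GR50, 72 h: breast cancer and non-malignant breast epithelial cell lines, Deep Dye Drop or Dye Drop imaging, nine half-log doses, GR normalized to time-zero plates and DMSO-only controls.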

## MDAMB361
[1]
  GR50, 72 h: 0.0887 µM
[2]
  GR50, 72 h: 0.654 µM
[3]
  GR50, 72 h: 0.00311 µM
[4]
  GR50, 72 h: < 0.001 µM
[5]
  GR50, 72 h: 0.476 µM
[6]
  GR50, 72 h: 5.8 µM
[7]
  GR50, 72 h: 7.23 µM
[8]
  GR50, 72 h: 0.152 µM
[9]
  GR50, 72 h: 0.297 µM
[10]; 0.0001 µM
  GR value: 1.05 GR
[10]; 0.0003162 µM
  GR value: 0.905 GR
[10]; 0.001 µM
  GR value: 0.752 GR
[10]; 0.003162 µM
  GR value: 0.73 GR
[10]; 0.01 µM
  GR value: 0.942 GR
[10]; 0.03162 µM
  GR value: 0.753 GR
[10]; 0.1 µM
  GR value: 0.562 GR
[10]; 0.3162 µM
  GR value: -0.0494 GR
[10]; 1 µM
  GR value: -0.402 GR
[11]; 0.001 µM
  GR value: 0.882 GR
[11]; 0.003162 µM
  GR value: 0.631 GR
[11]; 0.01 µM
  GR value: 0.227 GR
[11]; 0.03162 µM
  GR value: 0.118 GR
[11]; 0.1 µM
  GR value: 0.119 GR
[11]; 0.3162 µM
  GR value: 0.121 GR
[11]; 1 µM
  GR value: 0.0452 GR
[11]; 3.162 µM
  GR value: -0.189 GR
[11]; 10 µM
  GR value: -0.341 GR
[12]; 0.001 µM
  GR value: 0.264 GR
[12]; 0.003162 µM
  GR value: 0.0247 GR
[12]; 0.01 µM
  GR value: -0.0567 GR
[12]; 0.03162 µM
  GR value: -0.0052 GR
[12]; 0.1 µM
  GR value: -0.0751 GR
[12]; 0.3162 µM
  GR value: -0.226 GR
[12]; 1 µM
  GR value: -0.188 GR
[12]; 3.162 µM
  GR value: -0.358 GR
[12]; 10 µM
  GR value: -0.881 GR
[13]; 0.0001 µM
  GR value: 0.955 GR
[13]; 0.0003162 µM
  GR value: 0.912 GR
[13]; 0.001 µM
  GR value: 0.758 GR
[13]; 0.003162 µM
  GR value: 0.849 GR
[13]; 0.01 µM
  GR value: 1.06 GR
[13]; 0.03162 µM
  GR value: 0.299 GR
[13]; 0.1 µM
  GR value: -0.82 GR
[13]; 0.3162 µM
  GR value: -0.756 GR
[13]; 1 µM
  GR value: -0.539 GR
[14]; 0.0001 µM
  GR value: 1.02 GR
[14]; 0.0003162 µM
  GR value: 1.06 GR
[14]; 0.001 µM
  GR value: 0.999 GR
[14]; 0.003162 µM
  GR value: 1.09 GR
[14]; 0.01 µM
  GR value: 0.737 GR
[14]; 0.03162 µM
  GR value: -0.473 GR
[14]; 0.1 µM
  GR value: -0.284 GR
[14]; 0.3162 µM
  GR value: -0.28 GR
[14]; 1 µM
  GR value: -0.282 GR
[15]; 0.001 µM
  GR value: 0.49 GR
[15]; 0.003162 µM
  GR value: 0.396 GR
[15]; 0.01 µM
  GR value: 0.306 GR
[15]; 0.03162 µM
  GR value: 0.435 GR
[15]; 0.1 µM
  GR value: 0.287 GR
[15]; 0.3162 µM
  GR value: 0.0812 GR
[15]; 1 µM
  GR value: 0.176 GR
[15]; 3.162 µM
  GR value: -0.0126 GR
[15]; 10 µM
  GR value: 0.2 GR
[16]; 0.001 µM
  GR value: 1.09 GR
[16]; 0.003162 µM
  GR value: 0.828 GR
[16]; 0.01 µM
  GR value: 0.927 GR
[16]; 0.03162 µM
  GR value: 0.784 GR
[16]; 0.1 µM
  GR value: 0.659 GR
[16]; 0.3162 µM
  GR value: 0.489 GR
[16]; 1 µM
  GR value: 0.32 GR
[16]; 3.162 µM
  GR value: 0.309 GR
[16]; 10 µM
  GR value: -0.0683 GR
[17]; 0.0001 µM
  GR value: 0.939 GR
[17]; 0.0003162 µM
  GR value: 0.772 GR
[17]; 0.001 µM
  GR value: 0.986 GR
[17]; 0.003162 µM
  GR value: 0.521 GR
[17]; 0.01 µM
  GR value: 0.463 GR
[17]; 0.03162 µM
  GR value: 0.153 GR
[17]; 0.1 µM
  GR value: -0.511 GR
[17]; 0.3162 µM
  GR value: -0.804 GR
[17]; 1 µM
  GR value: -0.71 GR
